# Patent US8173682B2, “Substituted pyridones as inhibitors of poly(ADP-ribose) polymerase (PARP)” (Aventis Pharmaceuticals Inc., priority 2004, dated 2012)
# Structures can show the parent of a compound that is named as a salt.
# Target: T1, recombinant human PARP (PARP1) (Homo sapiens, UniProt P09874)
# T1 construct: Full length human PARP (PARP1) is assembled from PCR fragments; His6 tag with TEV site, from the pFastBac-HTb vector (own knowledge of the vector); made in house; host or cells: insect cells, baculovirus (Bac-to-Bac, Gibco-BRL)
# Assay: PARP enzyme assay, Method A (radioactivity or 'ELISA' enzyme assay with partially purified enzyme)
# Type: biochemical
# Conditions: recombinant human PARP preparation, radioactive or ELISA enzyme assay
# Source text: Two different methods are employed in determining the activity of the compounds of this invention in inhibiting the activity of PARP enzyme, designated as Method A and Method B respectively as set forth below.
# Method A: Cloning and Expression, and Partial Purification of Recombinant Human PARP:
# Full length human PARP (PARP1) is assembled from PCR fragments of a clone from a human brain cDNA library and two Incyte clones. The PARP gene (3046 bp) is sub-cloned into pFastBac-HTb vector to give PARP-pFastBac-HTb and the sequence of this clone is verified. PARP-pFastBac-HTb is expressed to obtain protein using the Bac-to-Bac expression protocol from Gibco-BRL. The recombinant virus generated is used to scale up the material for purification.
# Cell pellets from cell broth of cells expressing PARP are treated with a cocktail of protease inhibitors and lysed by 4 freeze-thaw cycles. The material is suspended in 10 mM HEPES/0.1M NaCl/pH 7.2, stirred, and then centrifuged. A 40%-70% ammonium sulfate cut of protein pellet is obtained from the supernatant. The pellet is solubilized in 10 mM HEPES/pH 7.2 and centrifuged. The supernatant buffer is exchanged to 10 mM HEPES/pH 7.2/0.1M NaCl/25% glycerol by dialysis or with a desalting column. The enzyme preparation is stored at −20° C. until use.
# The compounds of this invention are then tested with this enzyme preparation using either the radioactive enzyme assay or by the “ELISA” enzyme assay as set forth below.
# Radioactivity Enzyme Assay:
# Incorporation of radioactivity from labeled NAD into acid-precipitated protein is measured. The reaction mixture (volume 100 μL or 50 μL, in a test-tube or 96-well plate) contained 100 μg/mL calf thymus DNA (sonicated), 100 μg/mL histones, 100 mM Tris (pH 8.0), 1.0 mM DTT, 10 mM MgCl2, NAD (200 μM, 0.65 microcurie/mL), and varying amounts of enzyme. The reaction was incubated for 10 min at 37° C. or at room temperature for 60 min. The reaction was stopped and protein precipitated by addition of ice-cold trichloroacetic acid (TCA; 10% or 20% aqueous w/v). After brief storage in ice or at 4° C. for 2 hrs, the reaction mixture is filtered under vacuum through a glass fiber filter (2.5 cm disc, or 96-well filter plate). After washing with TCA and ethanol, the filter is dried and counted for tritium CPM after addition of scintillation fluid.
# Incorporation of biotin-NAD into histone coated on plate is measured. A 96-well protein-binding EIA plate is coated with histone and blocked with bovine serum albumin. The reaction mixture (50 μL) contained DNA, buffer, enzyme, (test compound), and 250 μM of NAD and 5 μL of biotin-NAD (Trevigen). After reaction at room temperature the wells are washed and treated with Extravidin (Sigma). After incubation and washing color is developed with the peroxidase substrate TMB (Sigma). The TMB reaction is quenched with 2M sulfuric acid and the absorbance at 450 nm is read.
# T1 sequence (P09874 whole entry, the tested form may be a part): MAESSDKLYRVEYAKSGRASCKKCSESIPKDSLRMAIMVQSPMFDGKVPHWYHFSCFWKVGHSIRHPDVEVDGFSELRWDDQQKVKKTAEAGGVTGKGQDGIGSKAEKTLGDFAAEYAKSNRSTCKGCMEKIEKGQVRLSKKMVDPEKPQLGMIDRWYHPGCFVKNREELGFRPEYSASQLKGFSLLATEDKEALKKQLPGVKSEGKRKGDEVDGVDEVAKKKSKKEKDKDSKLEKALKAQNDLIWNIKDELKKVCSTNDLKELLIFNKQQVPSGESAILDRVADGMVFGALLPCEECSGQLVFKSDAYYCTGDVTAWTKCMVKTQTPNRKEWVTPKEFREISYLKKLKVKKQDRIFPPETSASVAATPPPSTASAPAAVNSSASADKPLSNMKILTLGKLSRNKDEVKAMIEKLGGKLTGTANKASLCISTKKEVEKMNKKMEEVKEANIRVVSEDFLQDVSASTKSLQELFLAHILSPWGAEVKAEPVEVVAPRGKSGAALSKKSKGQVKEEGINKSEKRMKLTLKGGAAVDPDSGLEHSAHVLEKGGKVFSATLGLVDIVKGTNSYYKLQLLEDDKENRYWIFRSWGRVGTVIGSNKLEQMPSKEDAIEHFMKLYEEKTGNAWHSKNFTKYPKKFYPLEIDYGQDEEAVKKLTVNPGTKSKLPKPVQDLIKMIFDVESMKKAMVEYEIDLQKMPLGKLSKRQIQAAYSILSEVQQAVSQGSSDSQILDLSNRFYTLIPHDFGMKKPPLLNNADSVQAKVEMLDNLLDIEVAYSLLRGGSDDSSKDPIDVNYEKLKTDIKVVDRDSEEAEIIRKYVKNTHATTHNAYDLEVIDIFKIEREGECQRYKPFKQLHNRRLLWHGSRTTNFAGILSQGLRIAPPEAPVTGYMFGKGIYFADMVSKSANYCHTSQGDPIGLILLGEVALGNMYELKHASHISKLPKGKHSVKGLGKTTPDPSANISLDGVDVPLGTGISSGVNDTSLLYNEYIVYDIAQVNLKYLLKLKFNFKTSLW
row,Molecule,IC50 [µM]
1,"CCc1cc(-c2ccc(S(=O)(=O)N(C)Cc3cc(F)cc(F)c3)s2)c(C)[nH]c1=O [Example 29, 5-(5-Ethyl-2-methyl-6-oxo-1,6-dihydropyridin-3-yl)thiophene-2-sulfonic acid (3,5-difluorobenzyl)methylamide]",0.57
2,"CCc1cc(-c2ncon2)c(C)[nH]c1=O [Example 23, 3-Ethyl-6-methyl-5-(1,2,4-oxadiazol-3-yl)-1H-pyridin-2-one]",0.67
3,"CCc1cc(-c2ccc(CN3CCC[C@H]3COC)s2)c(C)[nH]c1=O [Example 191, 3-Ethyl-5-{5-[(S)-2-methoxymethylpyrrolidin-1-ylmethyl]thiophen-2-yl}-6-methyl-1H-pyridin-2-one hydrochloride]",0.8
4,"5-(5-Ethyl-2-methyl-6-oxo-1,6-dihydropyridin-3-yl)thiophene-2-sulfonic acid (2-1′-[5-(5-ethyl-2-methyl-6-oxo-1,6-dihydropyridin-3-yl)thiophene-2-sulfonyl]-1H-imidazol-4-yl}ethyl)amide hydrochloride [Example 40]",0.13
5,"CCc1cc(-c2ccc(S(=O)(=O)NCCNc3ccccc3)s2)c(C)[nH]c1=O [Example 32, 5-(5-Ethyl-2-methyl-6-oxo-1,6-dihydropyridin-3-yl)thiophene-2-sulfonic acid 2-phenylaminoethylamide hydrochloride]",2.9
6,"CCc1cc(-c2ccc(S(=O)(=O)NCCCN3CCC(O)C3)s2)c(C)[nH]c1=O (centres unmarked) [Example 30, 5-(5-Ethyl-2-methyl-6-oxo-1,6-dihydro-pyridin-3-yl)-thiophene-2-sulfonic acid [3-(3-hydroxy-pyrrolidin-1-yl)-propyl]-amide hydrochloride]",10
7,"CCc1cc(-c2ccc(CNCc3ccccn3)s2)c(C)[nH]c1=O [Example 195, 3-Ethyl-6-methyl-5-(5-{[(pyridin-2-ylmethyl)amino]methyl}thiophen-2-yl)-1H-pyridin-2-one hydrochloride]",0.67
8,"CCc1cc(-c2ccc(S(=O)(=O)N3CCOCC3)s2)c(C)[nH]c1=O [Example 86, 3-Ethyl-6-methyl-5-[5-(morpholine-4-sulfonyl)thiophen-2-yl]-1H-pyridin-2-one]",4.5
9,"CCc1cc(-c2ccc(S(=O)(=O)N3CCN(C)CC3)s2)c(C)[nH]c1=O [Example 92, 3-Ethyl-6-methyl-5-[5-(4-methylpiperazine-1-sulfonyl)thiophen-2-yl]-1H-pyridin-2-one]",1.3
10,"CCc1cc(-c2ccc(S(=O)(=O)N3CCC(O)CC3)s2)c(C)[nH]c1=O [Example 87, 3-Ethyl-5-[5-(4-hydroxypiperidine-1-sulfonyl)thiophen-2-yl]-6-methyl-1H-pyridin-2-one]",5.3
11,"CCc1cc(-c2ccc(CNCCc3cccnc3)s2)c(C)[nH]c1=O [Example 163, 3-Ethyl-6-methyl-5-{5-{[(pyridin-3-ylethyl)amino]methyl}thiophen-2-yl)-1H-pyridin-2-one dihydrochloride]",1.7
12,"CCc1cc(-c2ccc(S(=O)(=O)N3CCN(Cc4ccc5c(c4)OCO5)CC3)s2)c(C)[nH]c1=O [Example 104, 5-[5-(4-1,3-Benzodioxol-5-ylmethylpiperazine-1-sulfonyl)-thiophen-2-yl]-3-ethyl-6-methyl-1H-pyridin-2-one hydrochloride]",2.5
13,"CCc1cc(-c2ccc(S(=O)(=O)N3CCC(C(=O)c4ccccc4)CC3)s2)c(C)[nH]c1=O [Example 108, 5-[5-(4-Benzoylpiperidine-1-sulfonyl)thiophen-2-yl]-3-ethyl-6-methyl-1H-pyridin-2-one]",1
14,"CCc1cc(-c2ccc(CNCCCn3ccnc3)s2)c(C)[nH]c1=O [Example 153, 3-Ethyl-6-methyl-5-{5-[(3-imidazol-1-yl-propylamino)-methyl]thiophen-2-yl)-1H-pyridin-2-one dihydrochloride]",0.67
15,"CCc1cc(-c2ccc(CN3CCC4(CC3)OCCO4)s2)c(C)[nH]c1=O [Example 149, 5-[5-(1,4-Dioxa-8-aza-spiro[4,5]dec-8-ylmethy)-thiophen-2-yl)-3-ethyl-6-methyl-1H-pyridin-2-one hydrochloride]",0.79
16,"CCc1cc(-c2ccc(CN3CCC(F)(F)C3)s2)c(C)[nH]c1=O [Example 172, 5-{5-[(3,3-Difluoropyrrolidin-1-ylmethyl)(thiophen-2-yl)-3-ethyl-6-methyl-1H-pyridin-2-one hydrochloride]",1
17,"CCc1cc(-c2ccc(S(=O)(=O)N3CCN(c4ccccc4)CC3)s2)c(C)[nH]c1=O [Example 24, 3-Ethyl-6-methyl-5-[5-(4-phenylpiperazine-1-sulfonyl)thiophen-2-yl]-1H-pyridin-2-one]",0.63

# Other lines, results leading:
row,IC50 [µM],Molecule
1,0.18,"CCc1cc(-c2ccc(S(=O)(=O)NCc3ccco3)s2)c(C)[nH]c1=O [Example 97, 5-(5-Ethyl-2-methyl-6-oxo-1,6-dihydropyridin-3-yl)-thiophene-2-sulfonic acid (furan-2-ylmethyl)amide]"
2,0.17,"CCc1cc(-c2n[nH]c(C)n2)c(C)[nH]c1=O [Example 21, 3-Ethyl-6-methyl-5-(5-methyl-2H-1,2,4-triazol-3-yl)-1H-pyridin-2-one]"
3,0.43,"CCc1cc(-c2ccc(S(=O)(=O)N(C)Cc3ccco3)s2)c(C)[nH]c1=O [Example 106, 5-(5-Ethyl-2-methyl-6-oxo-1,6-dihydro-pyridin-3-yl)thiophene-2-sulfonic acid furan-2-yl-methyl-methylamide]"
4,0.22,"CCc1cc(-c2ccc(S(=O)(=O)N3CCN(c4ccncc4)CC3)o2)c(C)[nH]c1=O [Example 45, 3-Ethyl-6-methyl-5-{5-[(4-pyridin-4-yl)piperazine-1-sulfonyl]furan-2-yl}-1H-pyridin-2-one hydrochloride]"
5,0.4,"CCc1cc(-c2ccc(CNCc3cccc(C(F)(F)F)c3F)s2)c(C)[nH]c1=O [Example 178, 3-Ethyl-5-{5-[(2-fluoro-3-trifluoromethylbenzylamino)methyl](thiophen-2-yl)-6-methyl-1H-pyridin-2-one hydrochloride]"
6,0.46,"CCc1cc(-c2ccc(CNCCO)s2)c(C)[nH]c1=O [Example 128, 3-Ethyl-5-{5-[(2-hydroxy-ethylamino)-methyl]thiophen-2-yl}-6-methyl-1H-pyridin-2-one hydrochloride]"
7,0.18,"CCc1cc(-c2ccc(S(=O)(=O)NCCCN3CCCC3)o2)c(C)[nH]c1=O [Example 49, 5-(5-Ethyl-2-methyl-6-oxo-1,6-dihydropyridin-3-yl)furan-2-sulfonic Acid (3-pyrrolidin-1-yl)propylamide hydrochloride]"
8,0.41,"CCc1cc(-c2ccc(S(=O)(=O)NCCOc3ccccc3)s2)c(C)[nH]c1=O [Example 98, 5-(5-Ethyl-2-methyl-6-oxo-1,6-dihydropyridin-3-yl)-thiophene-2-sulfonic acid (2-phenoxyethyl)amide]"
9,0.23,"CCc1cc(-c2nc(C)no2)c(C)[nH]c1=O [Example 19, 3-Ethyl-6-methyl-5-(3-methyl-1,2,4-oxadiazol-5-yl)-1H-pyridin-2-one]"
10,0.16,"CCc1cc(-c2ccc(S(=O)(=O)NCCN3CCCC3)o2)c(C)[nH]c1=O [Example 53, 5-(5-Ethyl-2-methyl-6-oxo-1,6-dihydropyridin-3-yl)furan-2-sulfonic acid (2-pyrrolidin-1-yl)ethylamide hydrochloride]"
11,0.26,"CCc1cc(-c2ccc(S(=O)(=O)NCCN3CCCCC3)s2)c(C)[nH]c1=O [Example 69, 5-[5-Ethyl-2-methyl-6-oxo-1,6-dihydropyridin-3-yl]thiophene-2-sulfonic acid (2-piperidin-1-yl)ethylamide hydrochloride]"
12,0.28,"CCc1cc(-c2ccc(CNC(=O)CN3CCCC3)s2)c(C)[nH]c1=O [Example 176, N-[5-(5-Ethyl-2-methyl-6-oxo-1,6-dihydropyridin-3-yl)thiophen-2-ylmethyl]-2-(pyrrolidin-1-yl)acetamide hydrochloride]"
